Assay results: patent US11033641B2, “Radiolabelled mGluR2/3 pet ligands” (Janssen Pharmaceutica NV, priority 2015, dated 2021)

How the values were obtained:
human mGlu2 = target: T1, human mGlu2 (Homo sapiens, UniProt Q14416); experiment: [3H]-compound A displacement binding, human mGlu2 HEK293 membranes; details: Glu2 HEK293, 6 nM [3H]-compound A
T1 construct: expressed in transfected cells; host or cells: HEK293
Experimental: (§1) For [^3H]-compound A (a NAM compound, selective for mGlu2/3 (˜20 fold selective for 2 over 3) vs other mGluRs) binding, membranes from human mGlu2 and mGlu3 HEK293 cells, and also rat cortical membranes, were used. After thawing, membranes were homogenized using an Ultra Turrax homogenizer and suspended in ice-cold binding buffer containing 50 mM Tris-HCl (pH 7.4), 10 mM MgCl2, 2 mM CaCl2. Displacement studies were done using 6 nM of radioligand, except for human mGlu3 membranes where 25 nM was used. Assay mixtures were incubated for 60 min at RT in a volume of 0.5 ml containing […] or 75 μg membrane protein of human mGlu2, human mGlu3 or rat cortex, respectively. Non-specific binding was estimated in the presence of […] compound B (a NAM with IC50˜10 nM against hmGlu2 and IC50˜200 nM against hmGlu3). Filtration was performed using Whatman GF/C filter sheets pre-soaked in 0.1% PEI and a Brandell harvester 96.
(§2) Filters from filters sheets were punched into vials. After the addition of scintillation liquid, radioactivity on the filters was counted in a Liquid Scintillation Analyzer from Perkin Elmer.
(§3) Radioligand competition binding data were calculated as percentage of total binding measured in the absence of test compound. Inhibition curves, plotting percentage of total binding versus the log concentration of the test compound, were generated using the Lexis software. Sigmoid inhibition curves were analyzed using non-linear regression analysis.

human mGlu3 = target: T2, human mGlu3 (Homo sapiens, UniProt Q14832); experiment: [3H]-compound A displacement binding, human mGlu3 HEK293 membranes; details: Glu3 HEK293, 25 nM [3H]-compound A
T2 construct: expressed in transfected cells; host or cells: HEK293
T2 sequence (Q14832 23-879): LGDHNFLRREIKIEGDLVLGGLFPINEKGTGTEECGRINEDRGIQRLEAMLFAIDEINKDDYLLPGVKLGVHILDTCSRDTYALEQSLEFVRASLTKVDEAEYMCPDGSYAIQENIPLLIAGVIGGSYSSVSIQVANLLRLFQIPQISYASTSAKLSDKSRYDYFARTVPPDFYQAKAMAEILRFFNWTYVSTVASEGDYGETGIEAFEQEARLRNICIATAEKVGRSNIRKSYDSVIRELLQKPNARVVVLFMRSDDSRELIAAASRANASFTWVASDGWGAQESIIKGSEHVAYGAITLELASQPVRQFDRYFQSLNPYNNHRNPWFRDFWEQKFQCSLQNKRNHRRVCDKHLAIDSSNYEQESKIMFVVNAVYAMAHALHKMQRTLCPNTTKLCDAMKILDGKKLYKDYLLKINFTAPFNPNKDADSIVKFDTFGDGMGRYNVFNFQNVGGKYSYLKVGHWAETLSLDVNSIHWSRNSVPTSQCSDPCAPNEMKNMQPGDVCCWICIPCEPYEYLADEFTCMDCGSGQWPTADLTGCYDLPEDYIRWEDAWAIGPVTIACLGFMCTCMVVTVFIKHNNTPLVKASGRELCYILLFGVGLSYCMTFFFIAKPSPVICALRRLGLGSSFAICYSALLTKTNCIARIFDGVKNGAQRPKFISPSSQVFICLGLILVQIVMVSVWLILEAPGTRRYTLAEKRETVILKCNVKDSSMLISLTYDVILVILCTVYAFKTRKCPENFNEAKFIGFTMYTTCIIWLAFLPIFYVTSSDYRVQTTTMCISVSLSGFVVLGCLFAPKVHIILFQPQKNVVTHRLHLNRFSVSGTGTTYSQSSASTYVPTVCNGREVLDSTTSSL
Experimental: as §1, §2, §3

[1] = Ex-vivo biodistribution in SD rats; set-up: species or system Sprague Dawley rats
Experimental: (§4) Sprague-Dawley rats obtained from Harlan (the Netherlands), were housed in groups of four to six per cage until treatment. They were kept at a constant temperature of 21° C. and at a 12-h light/dark cycle, in which lights were switched on at 8:00 a.m. Animals had unrestricted access to food (Teklad Global 16% Protein Rodent Diet, Harlan, Madison, Wis., USA) and water. All animal experiments were performed in compliance with Belgium laws on animal experimentation and after approval by the local animal ethics committee.
(§5) The biodistribution of [^18F]-1 was determined at 2, 10, 30 and 60 min, after injection in Sprague Dawley (SD) rats (n=3 per time point) while for [^18F]-2 the 30 min time point was not performed. Rats were injected intravenously with 0.7-1.1 MBq via a tail vein and euthanized at the time points indicated above, under isoflurane anesthesia. All tissues were dissected, weighed and counted for radioactivity in a gamma counter.
as §5, with “Dawley” for “Dawley (SD)”, “point).” for “point) while for [^18F]-2 the 30 min time point was not performed.”

mGluR2/3 = experiment: microPET scan, baseline and after compound A pretreatment; type: in vivo; details: SD rats
Experimental: Data were acquired in a 128×128×95 matrix with a pixel width of 0.475 mm and a slice thickness of 0.796 mm. During PET imaging, rats were kept under gas anesthesia (2.5% isoflurane in oxygen at a flow rate of 1 l/min), and their body temperature was maintained between 36.5 and 37° C. using a heating pad. PET data were analyzed using Pmod software version 3.2 (Pmod, Zurich Switzerland).
as §4
All pretreatment solutions were 1 mg/mL solutions in 20% β-cyclodextrine in saline with a pH ranging between 6 and 8, and sterile filtered over a Millex GV filter prior to use.
For the baseline scan, 36-43 MBq of [^18F]-1 was injected in 3 SD rats weighing 229-251 g in the tail vein, and scanned simultaneously during a 90 min dynamic PET scan. For the pretreatment scan using compound A (a NAM compound, selective for mGlu2/3 (˜20 fold selective for 2 over 3) vs other mGluRs), the same animals were injected with 10 mg/kg compound A s.c. 60 minutes prior to injection of 38-37 MBq [^18F]-1 in the tail vein, and scanned simultaneously during a 90 minutes dynamic PET scan.
For the baseline scan, 39-49 MBq of [^18F]-2 was injected in 3 SD rats weighing 301-310 g in a tail vein, and scanned simultaneously during a 90-min dynamic PET scan. For the pretreatment scan using compound A, the same animals were injected with 10 mg/kg compound A s.c. 60 min prior to injection of 46-50 MBq [^18F]-2 in the tail vein, and scanned simultaneously during a 90 min dynamic PET scan.

T1 sequence (Q14416 19-872): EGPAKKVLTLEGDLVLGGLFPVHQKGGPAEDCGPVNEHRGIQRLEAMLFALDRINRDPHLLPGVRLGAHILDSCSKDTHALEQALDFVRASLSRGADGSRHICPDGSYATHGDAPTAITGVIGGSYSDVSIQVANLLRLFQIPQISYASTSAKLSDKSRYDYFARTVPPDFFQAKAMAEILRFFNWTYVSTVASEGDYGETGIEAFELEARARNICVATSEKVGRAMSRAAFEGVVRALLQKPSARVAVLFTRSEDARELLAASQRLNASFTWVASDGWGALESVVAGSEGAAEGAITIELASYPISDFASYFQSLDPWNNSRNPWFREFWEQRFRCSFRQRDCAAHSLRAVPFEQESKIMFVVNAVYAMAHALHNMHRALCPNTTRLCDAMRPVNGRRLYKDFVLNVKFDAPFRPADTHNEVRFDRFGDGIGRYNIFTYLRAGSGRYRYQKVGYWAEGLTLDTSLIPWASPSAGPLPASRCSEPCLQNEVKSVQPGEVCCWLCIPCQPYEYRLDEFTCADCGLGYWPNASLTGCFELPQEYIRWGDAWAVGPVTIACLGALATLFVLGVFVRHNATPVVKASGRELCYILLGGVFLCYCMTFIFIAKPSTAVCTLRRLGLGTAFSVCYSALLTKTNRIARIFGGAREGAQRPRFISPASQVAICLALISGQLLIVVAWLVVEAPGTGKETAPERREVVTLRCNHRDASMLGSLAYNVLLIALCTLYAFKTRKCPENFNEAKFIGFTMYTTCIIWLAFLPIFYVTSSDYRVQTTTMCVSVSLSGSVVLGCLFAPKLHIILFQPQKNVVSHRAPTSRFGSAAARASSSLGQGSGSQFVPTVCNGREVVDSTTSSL

C[C@H]1CN(c2ccc(C(F)(F)F)c(C[18F])c2)C(=O)c2c(C#Cc3ccc(N)nc3)cnn21 [Compound 2]
Eff Curve (human mGlu2): 94
IC50 (human mGlu2): 2.82 nM
Eff Curve (human mGlu3): 107.5
IC50 (human mGlu3): 4.37 nM
Biodistribution, mean SUV ([1]; blood, 2 min after i.v. injection): 0.96 SUV
Biodistribution, mean SUV ([1]; blood, 10 min after i.v. injection): 0.92 SUV
Biodistribution, mean SUV ([1]; blood, 60 min after i.v. injection): 0.67 SUV
Biodistribution, mean SUV ([1]; bone, 2 min after i.v. injection): 0.53 SUV
Biodistribution, mean SUV ([1]; bone, 10 min after i.v. injection): 0.62 SUV
Biodistribution, mean SUV ([1]; bone, 60 min after i.v. injection): 2.77 SUV
Biodistribution, mean SUV ([1]; cerebellum, 2 min after i.v. injection): 1.53 SUV
Biodistribution, mean SUV ([1]; cerebellum, 10 min after i.v. injection): 1.23 SUV
Biodistribution, mean SUV ([1]; cerebellum, 60 min after i.v. injection): 0.73 SUV
Biodistribution, mean SUV ([1]; cerebrum + cerebellum, 2 min after i.v. injection): 1.44 SUV
Biodistribution, mean SUV ([1]; cerebrum + cerebellum, 10 min after i.v. injection): 1.34 SUV
Biodistribution, mean SUV ([1]; cerebrum + cerebellum, 60 min after i.v. injection): 0.89 SUV
Biodistribution, mean SUV ([1]; cortex, 2 min after i.v. injection): 2.50 SUV
Biodistribution, mean SUV ([1]; cortex, 10 min after i.v. injection): 2.51 SUV
Biodistribution, mean SUV ([1]; cortex, 60 min after i.v. injection): 1.56 SUV
Brain uptake, in words ([1]; ex-vivo biodistribution): medium brain uptake
Defluorination judged from bone uptake over time ([1]; ex-vivo biodistribution): massive defluorination
Peripheral uptake, in words ([1]; ex-vivo biodistribution): high uptake in the liver
Biodistribution, mean SUV ([1]; heart, 2 min after i.v. injection): 2.42 SUV
Biodistribution, mean SUV ([1]; heart, 10 min after i.v. injection): 1.67 SUV
Biodistribution, mean SUV ([1]; heart, 60 min after i.v. injection): 0.82 SUV
Biodistribution, mean SUV ([1]; hippocampus, 2 min after i.v. injection): 1.03 SUV
Biodistribution, mean SUV ([1]; hippocampus, 10 min after i.v. injection): 1.17 SUV
Biodistribution, mean SUV ([1]; hippocampus, 60 min after i.v. injection): 0.74 SUV
Biodistribution, mean SUV ([1]; kidneys, 2 min after i.v. injection): 4.05 SUV
Biodistribution, mean SUV ([1]; kidneys, 10 min after i.v. injection): 2.73 SUV
Biodistribution, mean SUV ([1]; kidneys, 60 min after i.v. injection): 1.81 SUV
Biodistribution, mean SUV ([1]; liver, 2 min after i.v. injection): 8.44 SUV
Biodistribution, mean SUV ([1]; liver, 10 min after i.v. injection): 6.22 SUV
Biodistribution, mean SUV ([1]; liver, 60 min after i.v. injection): 2.83 SUV
Biodistribution, mean SUV ([1]; lungs, 2 min after i.v. injection): 2.66 SUV
Biodistribution, mean SUV ([1]; lungs, 10 min after i.v. injection): 1.52 SUV
Biodistribution, mean SUV ([1]; lungs, 60 min after i.v. injection): 1.02 SUV
Biodistribution, mean SUV ([1]; muscle, 2 min after i.v. injection): 0.88 SUV
Biodistribution, mean SUV ([1]; muscle, 10 min after i.v. injection): 0.82 SUV
Biodistribution, mean SUV ([1]; muscle, 60 min after i.v. injection): 0.59 SUV
Biodistribution, mean SUV ([1]; pancreas, 2 min after i.v. injection): 3.29 SUV
Biodistribution, mean SUV ([1]; pancreas, 10 min after i.v. injection): 2.06 SUV
Biodistribution, mean SUV ([1]; pancreas, 60 min after i.v. injection): 1.27 SUV
Biodistribution, mean SUV ([1]; pons, 2 min after i.v. injection): 1.04 SUV
Biodistribution, mean SUV ([1]; pons, 10 min after i.v. injection): 0.74 SUV
Biodistribution, mean SUV ([1]; pons, 60 min after i.v. injection): 0.40 SUV
Biodistribution, mean SUV ([1]; rest of cerebrum, 2 min after i.v. injection): 1.45 SUV
Biodistribution, mean SUV ([1]; rest of cerebrum, 10 min after i.v. injection): 1.39 SUV
Biodistribution, mean SUV ([1]; rest of cerebrum, 60 min after i.v. injection): 0.97 SUV
Biodistribution, mean SUV ([1]; spleen, 2 min after i.v. injection): 2.53 SUV
Biodistribution, mean SUV ([1]; spleen, 10 min after i.v. injection): 1.36 SUV
Biodistribution, mean SUV ([1]; spleen, 60 min after i.v. injection): 0.87 SUV
Biodistribution, mean SUV ([1]; striatum, 2 min after i.v. injection): 1.51 SUV
Biodistribution, mean SUV ([1]; striatum, 10 min after i.v. injection): 1.61 SUV
Biodistribution, mean SUV ([1]; striatum, 60 min after i.v. injection): 1.30 SUV
Biodistribution, mean SUV ([1]; whole cerebrum, 2 min after i.v. injection): 1.39 SUV
Biodistribution, mean SUV ([1]; whole cerebrum, 10 min after i.v. injection): 1.34 SUV
Biodistribution, mean SUV ([1]; whole cerebrum, 60 min after i.v. injection): 0.90 SUV
Brain uptake after pretreatment with compound A (mGluR2/3; 10 mg/kg compound A s.c. 60 min before tracer): peak uptake was higher after pretreatment, but generally showed a faster washout
Brain uptake in PET scan, in words (mGluR2/3; 90 min dynamic PET scan): high brain uptake
mGluR2/3 specificity of binding in vivo (mGluR2/3; PET, baseline vs compound A pretreatment): mGluR2/3 specific binding

C[C@H]1CN(c2ccc(C(F)(F)F)cc2)C(=O)c2c(C#Cc3cnc(N)cc3CO)cnn21 [Compound P-1]
melting point: 211.51 °C

C[C@H]1CN(c2ccc(C(F)(F)F)c(CO)c2)C(=O)c2c(C#Cc3ccc(N)nc3)cnn21 [Compound P-3]
melting point: 153.23 °C

C[C@H]1CN(c2ccc(C(F)(F)F)cc2)C(=O)c2c(C#Cc3cnc(N)cc3CF)cnn21 [[^19F]-1]
melting point: 187.28 °C
